According to patent US8697690B2, “Isoindolone M1 receptor positive allosteric modulators” (Merck Sharp & Dohme Corp., priority 2010, dated 2014):
pEC50: −log10 of the molar value.

biological target: T1, acetylcholine muscarinic M1 receptor (Homo sapiens, UniProt P11229); experiment: muscarinic FLIPR assay: intracellular calcium in CHOnfat/hM1 cells, potentiation of EC20 acetylcholine; format: cell-based; settings: IP = inflection point calculated from FLIPR values, 4 min preincubation, then EC20 acetylcholine (3 nM final)
T1 construct: expressed in transfected cells; host or cells: CHOnfat cells (CHO with NFAT reporter background), Geneticin-selected
T1 sequence (P11229 1-460): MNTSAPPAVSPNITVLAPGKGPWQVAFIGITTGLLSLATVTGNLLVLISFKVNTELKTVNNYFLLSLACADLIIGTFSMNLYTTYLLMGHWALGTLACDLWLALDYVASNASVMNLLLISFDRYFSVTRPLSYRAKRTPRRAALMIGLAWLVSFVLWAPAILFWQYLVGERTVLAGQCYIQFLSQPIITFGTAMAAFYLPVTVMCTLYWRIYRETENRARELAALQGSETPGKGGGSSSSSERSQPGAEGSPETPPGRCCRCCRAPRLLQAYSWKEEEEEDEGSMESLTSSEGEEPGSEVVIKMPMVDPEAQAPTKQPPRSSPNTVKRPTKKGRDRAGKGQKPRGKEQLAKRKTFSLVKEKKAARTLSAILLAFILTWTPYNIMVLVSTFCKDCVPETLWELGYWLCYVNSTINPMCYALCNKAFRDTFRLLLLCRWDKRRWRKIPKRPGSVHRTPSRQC
Protocol: The assay studies the effect of one or several concentrations of test compounds on basal or acetylcholine-stimulated Ca^2+ levels using FLIPR.
Compounds are prepared and subjected to a preincubation period of 4 min. Thereafter, a single EC20 concentration of acetylcholine is added to each well (3 nM final). The intracellular Ca^2+ level of each sample is measured and compared to an acetylcholine control to determine any modulatory activity.
Cells: CHOnfat/hM1, hM2, hM3 or hM4 cells are plated 24 hr before the assay at a density of 18,000 cells/well (100 μL) in a 384 well plate. CHOnfat/hM1 and CHOnfat/hM3 Growth Medium: 90% DMEM (Hi Glucose); 10% HI FBS; 2 mM L-glutamine; 0.1 mM NEAA; Pen-Strep; and 1 mg/ml Geneticin, are added. For M2Gqi5CHOnfat and M4Gqi5CHOnfat cells, an additional 600 ug/ml hygromycin is added.
Equipment: 384 well plate, 120 μL addition plate; 96-well Whatman 2 ml Uniplate Incubator, 37° C., 5% CO2; Skatron EMBLA-384 Plate Washer; Multimek Pipetting System; Genesis Freedom 200 System; Mosquito System; Temo Nanoliter Pipetting System; and FLIPR^384 Fluorometric Imaging Plate Reader System are used.
Buffers. Assay Buffer: Hanks Balanced Salt Solution, with 20 mM Hepes, 2.5 mM Probenecid (Sigma P-8761) first dissolved in 1 N NaOH, 1% Bovine Serum Albumin (Sigma A-9647). Dye Loading Buffer: Assay Buffer plus 1% Fetal Bovine Serum and Fluo-4AM/Pluronic Acid Mixture. 2 mM Fluo-4AM ester stock in DMSO (Molecular Probes F-14202) Concentration of 2 μM in buffer for a final concentration of 1 μM in Assay. 20% Pluronic Acid Solution stock, with concentration of 0.04% in Buffer, 0.02% in Assay.
65 μL of 2 mM Fluo-4AM are mixed with 130 μL of 20% Pluronic Acid. The resulting solution and 650 μL FBS is added to the assay buffer for a total volume of 65 mL. Positive Controls: 4-Br-A23187: 10 mM in DMSO; final concentration […]. Acetylcholine: 10 mM in water, working stock at both 20 μM and 30 μM in assay buffer, final concentration of 10 μM. This is used to check the maximum stimulation of the CHOK1/hM1 cells. 20 μM (2×) acetylcholine is added in the preincubation part of the assay, and the 30 μM (3×) stock is added in the second part. (EC20)Acetylcholine: 10 mM in water, working stock of 9 nM (3×), and final concentration in assay is 3 nM. This is used after the preincubation with test compounds. Addition of the EC20 Acetylcholine to each well with a test compound will ascertain any modulator activity. 24 wells contain 3 nM Acetylcholine alone as a control.
Determining Activity of Putative Compounds:
Screening Plate Compounds are titrated in 96-well plates (columns 2-11), 100% DMSO, started at a concentration of 15 mM (150× stock concentration), and 3-fold serial dilutions using Genesis Freedom200 System. Four 96-well plates are combined into a 384-well plate using Mosquito Nanoliter Pipetting System by transferring 1 μl of serial diluted compounds to each well, and 1 mM acetylcholine (100× stock concentration) were added as a control. Using Temo, 49 μl assay buffer is added to each well of the 384-well plate right before assay.
In a 96-well Whatman 2 ml Uniplate, 9 nM Acetylcholine (3×) is pipetted into wells corresponding to the screening compounds, and into control wells. The 30 μM acetylcholine control (3×) is added into control wells, and the 3× agonist plate is transferred into a 384 well plate.
Cells are washed three times with 100 μL of buffer, leaving 30 μL of buffer in each well. Using Multimek, 30 μL of Dye Loading Buffer is added into each well and incubated at 37° C., 5% CO2 for up to one hr.
After 60 min, the cells are washed three times with 100 μL of buffer, leaving 30 μL of buffer in each well. The cell plate, screening plate, and agonist addition plates are placed on the platform in the FLIPR and the door closed. A signal test to check background fluorescence and basal fluorescence signal is performed. Laser intensity is adjusted if necessary. […]

Compound	pEC50
O=C1c2cc(Cc3ccc(Cl)nc3)c3ccccc3c2CN1C1C=CCCC1 (stereo not shown) [Example 5, 5-[(6-Chloropyridin-3-yl)methyl]-2-cyclohex-2-en-1-yl-1,2-dihydro-3H-benzo[e]isoindol-3-one]	5.61
O=C1c2cc(Cc3ccc(C4CC4)nc3)c3cccnc3c2CN1[C@H]1CCCC[C@@H]1O [Example 25, 5-[(6-Cyclopropylpyridin-3-yl)methyl]-8-[(1S,2S)-2-hydroxycyclohexyl-8,9-dihydro-7H-pyrrolo 3,4-h]quinolin-7-one]	7.98
O=C1c2cc(Cc3ccc(OCc4ccccc4)nc3)c3cccnc3c2CN1[C@H]1CCCC[C@@H]1O [Example 19]	7.39
COc1ccc(Cc2cc3c(c4ncccc24)C(C)(C)N([C@H]2CCCC[C@@H]2O)C3=O)cn1 [Example 18, 8-[(1S,2S)-2-Hydroxycyclohexyl]-5-[(6-methoxypyridin-3-yl)methyl]-9,9-dimethyl-8,9-dihydro-7H-pyrrolo[3,4-h]quinolin-7-one]	6.51
O=C1CCC(Cc2cc3c(c4ncccc24)CN([C@H]2CCCC[C@@H]2O)C3=O)CN1 (stereo partly drawn) [Example 20, 8-[(1S,2S)-2-Hydroxycyclohexyl]-5-[(6-oxopiperidin-3-yl)methyl]-3,9-dihydro-7H-pyrrolo[3,4-h]quinolin-7-one]	6.70
O=CCC1c2c(cc(Cc3ccc(Cl)nc3)c3cccnc23)C(=O)N1[C@H]1CCCC[C@@H]1O (stereo partly drawn) [Example 22, {5-[(6-Chloropyridin-3-yl)methyl]-8-[(1S,2S)-2-hydroxycyclohexyl]-7-oxo-8,9-dihydro-7H-pyrrolo[3,4-h]quinolin-9-yl}acetaldehyde]	7.82
O=C1c2nc(Cc3ccc(-n4cccn4)nc3)c3ccccc3c2CN1[C@H]1CCCC[C@@H]1O (racemic) [Example 17, (±)-2-[trans-2-Hydroxycyclohexyl]-5-{[6-(1H-pyrazol-1-yl)pyridine-3-yl]methyl}-1,2-dihydro-3H-pyrrolo[3,4-c]isoquinoline-3-one]	7.54
O=C1c2cc(Cc3ccc(Cl)nc3)c3cccnc3c2C(CC(O)CO)N1[C@H]1CCCC[C@@H]1O (stereo partly drawn) [Example 21, 5-[(6-Chloropyridin-3-yl)methyl]-9-(2,3-dihydroxypropyl)-8-[(1S,2S)-2-hydroxycyclohexyl]-8,9-dihydro-7H-pyrrolo[3,4-h]quinolin-7-one]	7.72
CN(C)CCC1c2c(cc(Cc3ccc(Cl)nc3)c3cccnc23)C(=O)N1[C@H]1CCCC[C@@H]1O (stereo partly drawn) [Example 23, 5-[(6-Chloropyridin-3-yl)methyl]-9-[2-(dimethylamino)ethyl]-8-[(1S,2S)-2-hydroxycyclohexyl]-8,9-dihydro-7H-pyrrolo[3,4-h]quinolin-7-one]	7.00
COc1ccc(Cc2cc3c(c4ccccc24)CN([C@H]2CCCC[C@@H]2O)C3=O)cc1 [Example 1, 2-[(1S,2S)-2-Hydroxycyclohexyl]-5-(4-methoxybenzyl)-1,2-dihydro-3H-benzo[e]isoindol-3-one]	7.28
O=C1c2nc(Cc3ccc(Cl)nc3)c3ccccc3c2CN1[C@H]1CCCC[C@@H]1O (racemic) [Example 16, (±)-5-[(6-Chloropyridin-3-yl)methyl]-2-[trans-2-hydroxycyclohexyl]-1,2-dihydro-3H-pyrrolo[3,4-c]isoquinoline-3-one]	7.31
COc1ccc(Cc2cc3c(c4ccccc24)CN([C@H]2COCC[C@@H]2O)C3=O)cn1 [Example 11, 2-[(3S,4S)-4-Hydroxytetrahydro-2H-pyran-3-yl]-5-[(6-methoxypyridin-3-yl)methyl]-1,2-dihydro-3H-benzo[e]isoindol-3-one]	7.28
O=C1c2cc(Cc3ccc(Cl)nc3)c3cccnc3c2C(CCO)N1[C@H]1CCCC[C@@H]1O (stereo partly drawn) [Example 24, 5-[(6-Chloropyridin-3-yl)methyl]-8-[(1S,2S)-2-hydroxycyclohexyl]-9-(2-hydroxyethyl)-8,9-dihydro-7H-pyrrolo[3,4-h]quinolin-7-one]	8.13
CC1c2c(cc(Cc3ccc(Cl)nc3)c3ccccc23)C(=O)N1c1ccccc1F (racemic) [Example 15, (±)-5-[(6-Chloropyridin-3-yl)methyl]-2-(2-fluorophenyl)-1-methyl-1,2-dihydro-3H-benzo[e]isoinol-3-one]	6.18
CC(=O)O[C@H]1COCC[C@@H]1N1Cc2c(cc(Cc3ccc(O)nc3)c3ccccc23)C1=O [Example 12, 2-O-Acetyl-1,5-anhydro-3,4-dideoxy-3-{3-oxo-5-[(6-oxo-1,6-dihydroyridin-3-yl)methyl]-1,3-dihydro-2H-benzo[e]isoindol-2-yl)-L-threo-pentitol]	5.28

The remaining lines, values ahead:

pEC50	Compound
7.54	CSc1ccc(Cc2cc3c(c4ccccc24)CN([C@H]2CCCC[C@@H]2O)C3=O)cn1 [Example 10, 2-[(1S,2S)-2-Hydroxycyclohexyl]-5-{[6-(methylthio)pyridine-3-yl]methyl}-1,2-dihydro-3H-benzo[e]isoindol-3-one]
7.96	O=C1c2cc(Cc3cccnc3)c3ccccc3c2CN1[C@H]1CCCC[C@@H]1O [Example 6, 2-[(1S,2S)-2-Hydroxycyclohexyl]-5-(pyridin-3-ylmethyl)-1,2-dihydro-3H-benzo[e]isoindol-3-one]
7.74	Cc1ccc(Cc2cc3c(c4ccccc24)CN([C@H]2CCCC[C@@H]2O)C3=O)cn1 [Example 2, 2-[(1S,2S)-2-Hydroxycyclohexyl]-5-[(6-methylpyridin-3-yl)methyl]-1,2-dihydro-3H-benzo[e]isoindol-3-one]
6.51	O=C1c2cc(Cc3ccc(Cl)nc3)c3ccccc3c2CN1[C@H]1CCCC[C@@H]1F [Example 4, 5-[(6-Chloropyridin-3-yl)methyl]-2-[(2S)-2-fluorocyclohexyl]-1,2-dihydro-3H-benzo[e]isoindol-3-one]
7.70	O=C1c2cc(Cc3ccc(O)nc3)c3ccccc3c2CN1[C@H]1CCOC[C@@H]1O [Example 13, 1,5-Anhydro-2,3-dideoxy-3-{3-oxo-5-[(6-oxo-1,6-dihydropyridin-3-yl)methyl]-1,3-dihydro-2H-benzo[e]isoindol-2-yl}-L-threo-pentitol]
7.85	O=C1c2cc(Cc3ccc(N4CCOCC4)nc3)c3ccccc3c2CN1[C@H]1CCCC[C@@H]1O [Example 7, 2-[(1S,2S)-2-Hydroxycyclohexyl]-5-[(6-morpholin-4-ylpyridin-3-yl)methyl]-1,2-dihydro-3H-benzo[e]isoindol-3-one]
7.89	N#Cc1ccc(Cc2cc3c(c4ccccc24)CN([C@H]2CCCC[C@@H]2O)C3=O)cn1 [Example 9, 5-({2-[(1S,2S)-2-Hydroxycyclohexyl]-3-oxo-2,3-dihydro-1H-benzo[e]isoindol-5-yl}methyl)pyridine-2-carbonitrile]
